According to patent publication US20230157296A1, “METHODS OF REDUCING FUSARIUM CONTAMINATION” (Taminco BV, priority 2020, published 2023):

Columns and labels:
[1] = system: Foc TR4 chlamydospores; assay: Efficacy of metam sodium on chlamydospores of Foc TR4 in vitro (colonies on PDA plates); assay type: cell-based, Fusarium oxysporum f. sp. Cubense Tropical Race 4
Description: Foc TR4 chlamydospores were extracted from infested soil and incubated with a dilution series of metam sodium for 5 min and 60 min at room temperature. Thereafter, the samples were diluted 10X to get reduction of the treatment and sufficient dilution of chlamydospores to avoid lack of resolution when grown on plate. Aliquots of 100 µl were plated on PDA plates in duplicate and incubated for 3 days at 25° C. Plates were photographed and scored.

[2] = system: Cavendish banana plants; assay: Musa field soil injection of metam sodium at 30 cm and 60 cm: banana plant growth and stage; assay type: in vivo
Description: (§1) Metam Sodium Application. Metam sodium 510 SL (equivalent to 42% w/w) was applied to soil at the following doses: 0 liters per hectare (L/ha), 750 L/ha, 1500 L/ha, 2250 L/ha, 3000 L/ha.
(§2) Prior to injection, soil was prepared using a rototiller to break the soil structure from 0 cm to 80 cm deep, allowing for the smooth and even injection application by an injection machine. The soil was then leveled and made uniform, and the metam sodium was applied at two depths: 30 cm and 60 cm, using injection methods. The temperature was at a minimum of 10° C. and soil humidity was between 50 and 60% holding capacity, allowing the applied product to transform from metam sodium (liquid) to MITC (gas).
(§3) The application was made using an injection machine wherein the machine lowered shanks and began moving forward such that the shanks lowered to a depth of 60 cm and injectors applied the metam sodium into the soil. When the injection at 60 cm was complete, the process was repeated for the entire field at 30 cm. The treated soil in the field was then sealed using a packer roller (which was part of the injection machinery, located at the back end of the machine), after each application.
Plant Selection and Transplantation. Cavendish banana plants were used for this investigation. In order to avoid plants already contaminated by other soil, all plants were produced in vitro using art-recognized methods. Plants were transplanted into the field 14 days after the final soil reading was taken (21 days after treatment).
Data Gathering. Data were gathered at monthly intervals beginning three months after banana plants were transplanted. A total of three data collection sessions were conducted. Data including the number of leaves, plant height, and girth size were collected.

[3] = system: F. oxysporum f. sp. cubense (Foc TR4); assay: Panama disease analysis of soil samples after metam sodium field injection; assay type: in vivo, Fusarium oxysporum f. sp. Cubense Tropical Race 4
Description: as §1, §2, §3
Soil Analysis. Soil samples were obtained at 20, 40, and 60 cm before application and every 24 hours beginning 48 hours after application, for seven days.
Plant Pathology Analysis. Soil samples used for Panama Disease and nematode analyses were aseptically isolated in culture medium and incubated for seven days at room temperature. Organisms were identified as follows: 20 grams of composite soil sample was diluted with 40 mL distilled water (dH2O); 1 drop of Tween 20 detergent was added, and the sample mixed. A 1 mL aliquot was taken from the solution and diluted with 9 mL dH2O; three further serial dilutions were made. From each dilution, 100 µL were spread on solid Komada growth medium (Sun et al., Phytopathology 68: 1672-1673, 1978). Growth could be seen 7 days after inoculation.

[4] = 750 L/ha, six months after treatment
[5] = 1500 L/ha, six months after treatment
[6] = 2250 L/ha, six months after treatment
[7] = 3000 L/ha, six months after treatment

CNC(=S)[S-].[Na+] [metam sodium, sodium N-methyldithiocarbamate]
reducing the number of surviving chlamydospores, measured as growing colonies ([1]; 100X dilution, prolonged incubation (60 min vs 5 min)): more effective
reduction in viability of Foc TR4 chlamydospores ([1]; First test, dilutions from 1000 up to 10 X 10^6-fold, 60 min): No significant reduction in viability
efficacy on chlamydospores (colonies on PDA plates) ([1]; Second test, 10X and 100X dilutions): (partially) effective
number of chlamydospores that survived ([1]; Second test, dilutions of 1000X and more): did not affect
efficacy on chlamydospores (colonies on PDA plates) ([1]; dilution of 10X, incubation time 5 minutes): effective
efficacy on chlamydospores (colonies on PDA plates) ([1]; dilution of 100X, both 5 and 60 minutes): less effective
effectiveness against Foc TR4 chlamydospores ([1]; in vitro conditions, dependent on high concentrations): effective
effect on average girth size of banana plant ([2]; 750 L/ha): ~ 1 cm
increase in average height of banana plant ([2]; 750 L/ha): ~ 5 cm
effect on plants reaching bagging stage [2, 4]: did not have a meaningful effect
percent of plants at either shooting or bagging stage [2, 4]: 11%
percent of plants at shooting stage [2, 4]: 9%
increase in average girth size of banana plant ([2]; 1500-3000 L/ha): 4-6 cm
increase in average height of banana plant ([2]; 1500-3000 L/ha): 20-23 cm
percent of plants at either shooting or bagging stage [2, 5]: 28%
percent of plants at shooting stage [2, 5]: 10%
percent of plants at bagging stage ([2]; 1500 to 3000 L/ha, six months after treatment): 11-19%
percent of plants at either shooting or bagging stage [2, 6]: 27%
percent of plants at shooting stage [2, 6]: 17%
percent of plants at either shooting or bagging stage [2, 7]: 35%
percent of plants at shooting stage [2, 7]: 22%
leaf increase (average number of leaves per banana plant) ([2]; regardless of dose applied): roughly 1.5 fold
Panama Disease F. oxysporum f. sp. cubense ([3]; Day 1, 20 cm, T2 750 L/ha): -
Panama Disease F. oxysporum f. sp. cubense ([3]; Day 1, 20 cm, T3 1500 L/ha): -
Panama Disease F. oxysporum f. sp. cubense ([3]; Day 1, 20 cm, T4 2250 L/ha): -
Panama Disease F. oxysporum f. sp. cubense ([3]; Day 1, 20 cm, T5 3000 L/ha): -
Panama Disease F. oxysporum f. sp. cubense ([3]; Day 1, 40 cm, T2 750 L/ha): -
Panama Disease F. oxysporum f. sp. cubense ([3]; Day 1, 40 cm, T3 1500 L/ha): -
Panama Disease F. oxysporum f. sp. cubense ([3]; Day 1, 40 cm, T4 2250 L/ha): -
Panama Disease F. oxysporum f. sp. cubense ([3]; Day 1, 40 cm, T5 3000 L/ha): -
Panama Disease F. oxysporum f. sp. cubense ([3]; Day 1, 60 cm, T2 750 L/ha): -
Panama Disease F. oxysporum f. sp. cubense ([3]; Day 1, 60 cm, T3 1500 L/ha): -
Panama Disease F. oxysporum f. sp. cubense ([3]; Day 1, 60 cm, T4 2250 L/ha): -
Panama Disease F. oxysporum f. sp. cubense ([3]; Day 1, 60 cm, T5 3000 L/ha): -
Panama Disease F. oxysporum f. sp. cubense ([3]; Day 2, 20 cm, T2 750 L/ha): -
Panama Disease F. oxysporum f. sp. cubense ([3]; Day 2, 20 cm, T3 1500 L/ha): -
Panama Disease F. oxysporum f. sp. cubense ([3]; Day 2, 20 cm, T4 2250 L/ha): -
Panama Disease F. oxysporum f. sp. cubense ([3]; Day 2, 20 cm, T5 3000 L/ha): -
Panama Disease F. oxysporum f. sp. cubense ([3]; Day 2, 40 cm, T2 750 L/ha): -
Panama Disease F. oxysporum f. sp. cubense ([3]; Day 2, 40 cm, T3 1500 L/ha): -
Panama Disease F. oxysporum f. sp. cubense ([3]; Day 2, 40 cm, T4 2250 L/ha): -
Panama Disease F. oxysporum f. sp. cubense ([3]; Day 2, 40 cm, T5 3000 L/ha): -
Panama Disease F. oxysporum f. sp. cubense ([3]; Day 2, 60 cm, T2 750 L/ha): -
Panama Disease F. oxysporum f. sp. cubense ([3]; Day 2, 60 cm, T3 1500 L/ha): -
Panama Disease F. oxysporum f. sp. cubense ([3]; Day 2, 60 cm, T4 2250 L/ha): -
Panama Disease F. oxysporum f. sp. cubense ([3]; Day 2, 60 cm, T5 3000 L/ha): -
Panama Disease F. oxysporum f. sp. cubense ([3]; Day 3, 20 cm, T2 750 L/ha): -
Panama Disease F. oxysporum f. sp. cubense ([3]; Day 3, 20 cm, T3 1500 L/ha): -
Panama Disease F. oxysporum f. sp. cubense ([3]; Day 3, 20 cm, T4 2250 L/ha): -
Panama Disease F. oxysporum f. sp. cubense ([3]; Day 3, 20 cm, T5 3000 L/ha): -
Panama Disease F. oxysporum f. sp. cubense ([3]; Day 3, 40 cm, T2 750 L/ha): -
Panama Disease F. oxysporum f. sp. cubense ([3]; Day 3, 40 cm, T3 1500 L/ha): -
Panama Disease F. oxysporum f. sp. cubense ([3]; Day 3, 40 cm, T4 2250 L/ha): -
Panama Disease F. oxysporum f. sp. cubense ([3]; Day 3, 40 cm, T5 3000 L/ha): -
Panama Disease F. oxysporum f. sp. cubense ([3]; Day 3, 60 cm, T2 750 L/ha): -
Panama Disease F. oxysporum f. sp. cubense ([3]; Day 3, 60 cm, T3 1500 L/ha): -
Panama Disease F. oxysporum f. sp. cubense ([3]; Day 3, 60 cm, T4 2250 L/ha): -
Panama Disease F. oxysporum f. sp. cubense ([3]; Day 3, 60 cm, T5 3000 L/ha): -
Panama Disease F. oxysporum f. sp. cubense ([3]; Day 4, 20 cm, T2 750 L/ha): -
Panama Disease F. oxysporum f. sp. cubense ([3]; Day 4, 20 cm, T3 1500 L/ha): -
Panama Disease F. oxysporum f. sp. cubense ([3]; Day 4, 20 cm, T4 2250 L/ha): -
Panama Disease F. oxysporum f. sp. cubense ([3]; Day 4, 20 cm, T5 3000 L/ha): -
Panama Disease F. oxysporum f. sp. cubense ([3]; Day 4, 40 cm, T2 750 L/ha): -
Panama Disease F. oxysporum f. sp. cubense ([3]; Day 4, 40 cm, T3 1500 L/ha): -
Panama Disease F. oxysporum f. sp. cubense ([3]; Day 4, 40 cm, T4 2250 L/ha): -
Panama Disease F. oxysporum f. sp. cubense ([3]; Day 4, 40 cm, T5 3000 L/ha): -
Panama Disease F. oxysporum f. sp. cubense ([3]; Day 4, 60 cm, T2 750 L/ha): -
Panama Disease F. oxysporum f. sp. cubense ([3]; Day 4, 60 cm, T3 1500 L/ha): -
Panama Disease F. oxysporum f. sp. cubense ([3]; Day 4, 60 cm, T4 2250 L/ha): -
Panama Disease F. oxysporum f. sp. cubense ([3]; Day 4, 60 cm, T5 3000 L/ha): -
Panama Disease F. oxysporum f. sp. cubense ([3]; Day 5, 20 cm, T2 750 L/ha): -
Panama Disease F. oxysporum f. sp. cubense ([3]; Day 5, 20 cm, T3 1500 L/ha): -
Panama Disease F. oxysporum f. sp. cubense ([3]; Day 5, 20 cm, T4 2250 L/ha): -
Panama Disease F. oxysporum f. sp. cubense ([3]; Day 5, 20 cm, T5 3000 L/ha): -
Panama Disease F. oxysporum f. sp. cubense ([3]; Day 5, 40 cm, T2 750 L/ha): -
Panama Disease F. oxysporum f. sp. cubense ([3]; Day 5, 40 cm, T3 1500 L/ha): -
Panama Disease F. oxysporum f. sp. cubense ([3]; Day 5, 40 cm, T4 2250 L/ha): -
Panama Disease F. oxysporum f. sp. cubense ([3]; Day 5, 40 cm, T5 3000 L/ha): -
Panama Disease F. oxysporum f. sp. cubense ([3]; Day 5, 60 cm, T2 750 L/ha): -
Panama Disease F. oxysporum f. sp. cubense ([3]; Day 5, 60 cm, T3 1500 L/ha): -
Panama Disease F. oxysporum f. sp. cubense ([3]; Day 5, 60 cm, T4 2250 L/ha): -
Panama Disease F. oxysporum f. sp. cubense ([3]; Day 5, 60 cm, T5 3000 L/ha): -
Panama Disease F. oxysporum f. sp. cubense ([3]; Day 6, 20 cm, T2 750 L/ha): -
Panama Disease F. oxysporum f. sp. cubense ([3]; Day 6, 20 cm, T3 1500 L/ha): -
Panama Disease F. oxysporum f. sp. cubense ([3]; Day 6, 20 cm, T4 2250 L/ha): -
Panama Disease F. oxysporum f. sp. cubense ([3]; Day 6, 20 cm, T5 3000 L/ha): -
Panama Disease F. oxysporum f. sp. cubense ([3]; Day 6, 40 cm, T2 750 L/ha): -
Panama Disease F. oxysporum f. sp. cubense ([3]; Day 6, 40 cm, T3 1500 L/ha): -
Panama Disease F. oxysporum f. sp. cubense ([3]; Day 6, 40 cm, T4 2250 L/ha): -
Panama Disease F. oxysporum f. sp. cubense ([3]; Day 6, 40 cm, T5 3000 L/ha): -
Panama Disease F. oxysporum f. sp. cubense ([3]; Day 6, 60 cm, T2 750 L/ha): -
Panama Disease F. oxysporum f. sp. cubense ([3]; Day 6, 60 cm, T3 1500 L/ha): -
Panama Disease F. oxysporum f. sp. cubense ([3]; Day 6, 60 cm, T4 2250 L/ha): -
Panama Disease F. oxysporum f. sp. cubense ([3]; Day 6, 60 cm, T5 3000 L/ha): -
Panama Disease F. oxysporum f. sp. cubense ([3]; Day 7, 20 cm, T2 750 L/ha): -
Panama Disease F. oxysporum f. sp. cubense ([3]; Day 7, 20 cm, T3 1500 L/ha): -
Panama Disease F. oxysporum f. sp. cubense ([3]; Day 7, 20 cm, T4 2250 L/ha): -
Panama Disease F. oxysporum f. sp. cubense ([3]; Day 7, 20 cm, T5 3000 L/ha): -
Panama Disease F. oxysporum f. sp. cubense ([3]; Day 7, 40 cm, T2 750 L/ha): -
Panama Disease F. oxysporum f. sp. cubense ([3]; Day 7, 40 cm, T3 1500 L/ha): -
Panama Disease F. oxysporum f. sp. cubense ([3]; Day 7, 40 cm, T4 2250 L/ha): -
Panama Disease F. oxysporum f. sp. cubense ([3]; Day 7, 40 cm, T5 3000 L/ha): -
Panama Disease F. oxysporum f. sp. cubense ([3]; Day 7, 60 cm, T2 750 L/ha): -
Panama Disease F. oxysporum f. sp. cubense ([3]; Day 7, 60 cm, T3 1500 L/ha): -
Panama Disease F. oxysporum f. sp. cubense ([3]; Day 7, 60 cm, T4 2250 L/ha): -
Panama Disease F. oxysporum f. sp. cubense ([3]; Day 7, 60 cm, T5 3000 L/ha): -
soil contamination: Foc TR4 detection ([3]; any of the treated groups (750-3000 L/ha), any day post application): No Foc TR4 was detected
